# How the values were obtained:
# [1] = tested on: FGL-induced neurite outgrowth in CGN cultures; conditions: previously found; cited from earlier work
# [2] = tested on: FGL-induced neurite outgrowth in CGN cultures; assay: Effect of inhibitors of FGFR, MEK and PI3K on FGL-induced neurite outgrowth in CGN; type: cell-based, rat; conditions: for FGLd-induced neurite outgrowth in CGN in presence of inhibitor: FGLd-treated control = 100%
# Method: CGN cultures were grown for 24 hours at a density of 10,000 cells/cm^2 on 8-well permanox slides in the presence of the FGL peptide and an inhibitor. PD98059 ([…]) was added at concentrations of 12.5, 25 and 50 μM simultaneously with 10 μg/ml FGLd; LY294002 (▴) was added at concentrations of 3.5, 7 and 10 μM simultaneously with 27 μg/ml FGLd. SU5402 (▪) was added in concentrations of 20, 40 and 80 μM simultaneously with 27 μg/ml FGLd. After the treatment cells were fixed and immunostained for GAP-43. Results from at least four independent experiments are shown as percentage ±SEM, with FGLd-treated control cultures set at 100%. The dashed line indicates the average neurite length in cultures without FGLd-treatment. *p<0.05, **p<0.01 when compared to the FGLd-treated controls.
# (§1) Peptide solutions without or with inhibitors of various signal transduction pathways were added to a total volume of 300 μl/cm^2, and the slides were incubated at 37° C. After 24 hours, the neurons were fixed with 4% (v/v) formaldehyde for 20 minutes and thereafter immunostained using primary rabbit antibodies against GAP-43 and Alexa Fluor secondary goat anti-rabbit antibodies. Images of at least 200 neurons for each group in each individual experiment were obtained systematically by using computer assisted fluorescence microscopy as previously described (Rønn et al., 2000 op. cit.). Briefly, a Nikon Diaphot inverted microscope with a Nikon Plan 20× objective (Nikon, Tokyo, Japan) coupled to a video camera (Grundig Electronics, Germany) was used for recordings. The same software package as described above for the dopaminergic neurite outgrowth assay was used to process the recorded images.
# [3] = tested on: FGL-induced survival of CGN; assay: Effect of inhibitors of FGFR, MEK and PI3K on FGL-induced survival of CGN; type: cell-based, rat; conditions: 10 μg/ml FGLd, low KCl
# Method: Thereafter the MEK inhibitor PD98059 ([…]), PI3K inhibitor LY294002 (▴) and FGFR inhibitor SU5402 (▪) were added at various concentrations. The addition of the inhibitors followed in all cases by the addition of 10 μg/ml FGLd. […] Results from at least four individual experiments are shown as percentage of the number of live neurons relative to the total number of neurons ±SEM, with control cultures treated with FGLd set at 100%.
# [4] = tested on: hippocampal neurons; assay: Neurite outgrowth, hippocampal neurons; type: cell-based, rat
# Method: The cultures were subsequently immunostained for tyrosine hydroxylase. Hippocampal neurons and CGN were plated at a density of 10,000 cells/cm^2 on 8-well permanox chamber slides and incubated for 24 hours in the presence of various concentrations of FGLd. Subsequently the neurons were immunostained for GAP-43. Results from at least five independent experiments for each neuronal culture are shown as percentage ±SEM with the untreated controls set at 100%. *p<0.05, **p<0.01, ***p<0.001 when compared to the controls.
# Results from at least four independent experiments are shown as percentage SEM with untreated controls set at 100%. **p<0.01 when compared to the controls.
# as §1
# [5] = tested on: dissociated hippocampal neurons; assay: OGD, metabolic activity (MTS) in dissociated hippocampal cell cultures; type: cell-based, rat; conditions: inhibitor 25 μM together with FGLd for 24 hours before OGD
# Text: (§2) In the present study it was investigated the effect of the FGL peptide on synaptic plasticity, neuronal function and vulnerability following oxygen and glucose deprivation (OGD) in organotypic hippocampal neuronal slice cultures (OHSC) from 7-day-old Wistar rats according to method of Stoppini et al. (1991) Neurosci Methods. 37:173-82 and primary cultures of dissociated hippocampal neurons from 1-day-old rats according to method of Maar et al. (1997) J Neurosci Res. 47:163-72. Primary cell cultures were maintained for 11-12 days and OHSC for 12-14 days prior to adding FGLd.
# (§3) The primary cell cultures and OHSC were exposed to OGD for 10 and 20 minutes. Following OGD, the cultures were again supplied with oxygen and glucose and analysed at 1, 4 or 24 hour time point after introduction of OGD exposure. FGLd (or the control peptide FGLc) was added 24 hr before, immediately, or 1 hr or 24 hr after OGD. When administered prior to OGD, FGLd was removed from the medium when introducing OGD. In some cases, the slice cultures were treated with FGLd only at 4 hr after OGD. In addition, the FGFR inhibitor, SU5402 (25 μM), was added together with FGLd in some of the set-ups.
# (§4) In hippocampal neuronal cultures, FM 1-43 staining was used to evaluate pre-synaptic function (described above). Cell viability in both primary cell cultures and OHSC was measured using the […] [3-(4,5-dimethylthiazol-2-yl)-2,5-diphenyltetrazolium bromide] assay according to Malich et al, (1997) Toxicology. 124:179-92. In, addition, cell viability in OHSC was measured using propidium iodide (PI) staining according to Laake et al. (1999) Brain Res Brain Res Protoc. 4:173-84.
# [6] = tested on: dissociated hippocampal neurons; assay: OGD, FM 1-43 release in dissociated hippocampal cell cultures; type: cell-based, rat; conditions: together with FGLd
# Text: as §2, §3, §4
# [7] = tested on: hippocampal neurons; assay: FM 1-43 destaining (presynaptic vesicle turnover) in hippocampal neurons; type: cell-based, rat; conditions: added simultaneously with FGLd
# Method: The values were compared using an unpaired t-test. *p=0.04 (1 h) and **p=0.0032 (48 h). FGLcontrol is a control peptide consisting the sequence […] (SEQ ID NO: 147).
# The effects of FGLd on vesicle turnover was estimated in primary cultures of hippocampal neurons from embryonic rats (E19). The cultures were prepared as above. Following 13-16 days in vitro, FGLd was added to the cultures and incubated for 1, 24 or 48 hours. After 48 hours of incubation, the FGFR-inhibitor (SU 5402) was added simultaneously with FGLd to some of the cultures.
# After treatment with FGLd the neurons were labeled with the fluorescent membrane probe FM 1-43 as described by Kiryushko et al (2003) J Biol. Chem. 278:12325-34. The rate of FM 1-43 release (destaining of cells) evoked by depolarisation with 90 mM potassium was then evaluated by a time-lapse image acquisition using the Radiance 2000 scanning system and a Nikon eclipse TE200 confocal microscopy.
# [8] = tested on: organotypic hippocampal neuronal slice cultures (OHSC); assay: OGD, propidium iodide staining of OHSC; type: cell-based, rat; conditions: inhibitor together with FGLd
# Text: as §2, §3, §4
# [9] = molecular target: T1, rat FGFR1 (IIIC isoform) (Rattus norvegicus, UniProt Q04589); assay: Phosphorylation of FGFR1 in transfected HEK293 cells; type: cell-based; conditions: 20 μg/ml; 20 min; HEK293 cells transfected with rat FGFR1
# T1 construct: expressed in transfected cells; host or cells: HEK293 cells, transiently transfected with a pcDNA3.1(+) plasmid (Invitrogen)
# T1 sequence (Q04589 22-822): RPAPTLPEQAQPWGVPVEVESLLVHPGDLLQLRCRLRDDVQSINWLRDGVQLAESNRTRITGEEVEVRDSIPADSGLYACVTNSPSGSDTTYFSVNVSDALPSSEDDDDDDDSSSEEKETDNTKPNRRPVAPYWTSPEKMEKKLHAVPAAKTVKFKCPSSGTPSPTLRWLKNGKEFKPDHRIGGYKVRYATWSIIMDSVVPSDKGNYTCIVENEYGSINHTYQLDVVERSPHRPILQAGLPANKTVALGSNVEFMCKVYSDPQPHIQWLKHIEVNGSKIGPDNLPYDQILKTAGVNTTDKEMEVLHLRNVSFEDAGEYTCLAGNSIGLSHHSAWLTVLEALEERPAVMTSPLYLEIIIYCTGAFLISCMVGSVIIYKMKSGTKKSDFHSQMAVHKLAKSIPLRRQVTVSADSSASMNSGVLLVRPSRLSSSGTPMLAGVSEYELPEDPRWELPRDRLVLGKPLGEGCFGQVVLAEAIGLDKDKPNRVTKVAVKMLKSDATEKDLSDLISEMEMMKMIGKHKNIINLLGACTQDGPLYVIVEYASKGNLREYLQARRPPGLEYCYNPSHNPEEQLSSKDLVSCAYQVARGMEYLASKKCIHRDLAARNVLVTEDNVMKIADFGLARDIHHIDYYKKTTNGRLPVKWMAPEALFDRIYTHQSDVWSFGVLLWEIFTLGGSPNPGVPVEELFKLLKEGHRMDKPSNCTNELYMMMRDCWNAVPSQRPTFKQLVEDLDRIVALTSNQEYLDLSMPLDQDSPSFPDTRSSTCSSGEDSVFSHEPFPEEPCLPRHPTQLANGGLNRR
# Method: The EFL peptide is derived from the Fn 3, 2 module of NCAM and represents the E strand-loop-G strand part of the module. For the experiments the peptide was synthesised as described above. […] The peptide is also capable to bind and stimulate FGFR1 in cells expressing the receptor, wherein the peptide induces the receptor phosphorylation (at concentration 20 μg/ml by more then 300%). Phosphorylation of FGFR1 was studied using the following assay. […] Cells were grown for another 24 hrs in full medium, and then shifted to starvation media (DMEM 1965) overnight. FGFR transfected cells were stimulated for 20 min with the EFL monomer, lysed in 8M urea, 1 mM orthovanadate (in PBS) and purified from the lysate via the His-tag as follows: The lysate was loaded on Ni^2+/NTA-sepharose (Qiagen), washed with lysis buffer plus 10 mM imidazole, and the FGFR was eluted with lysis buffer plus 250 mM imidazole. The purified FGFR was analysed by immunoblotting using anti-pentahis (Qiagen) or anti-phosphotyrosine (PY20, Transduction Laboratories) antibodies. The bands were visualised by chemilumiscense and the band density was measured using a GeneGnome apparatus (SynGene).
# [10] = tested on: cerebellar granule neurons (CGN); assay: Survival of CGN induced to undergo apoptosis by low KCl; conditions: individual monomer; low KCl
# Method: Cerebella granular meurons (CGN) (e and f) from postnatal day 7 rats were grown at a density of 100,000 cells/cm^2 for 7 days on poly-L-lysine coated microtiter plates in the medium containing 40 mM KCl, then the medium was substituted to a 5 mM KCl containing medium supplemented with various concentrations of FGLd.
# For the experiments cerebellar tissue was dissected in modified Krebs-Ringer solution kept on ice, and treated as described for the hippocampal neurons above. All cell cultures were incubated at 37° C. in a humidified atmosphere containing 5% CO2.
# Primary cultures of CGN were plated at a density of 100,000 cells/cm^2 on poly-L-lysine coated 8-well permanox slides in Neurobasal-A medium (Gibco, BRL) supplemented with 2% (v/v) B27, 0.5% (v/v) glutamax, 100 U/ml penicillin, 100 μg/ml streptomycin and KCl, making the final concentration of KCl in the medium 40 mM. 24 hours after plating, cytosine-β-D-arabinofuranoside (Ara-C; Sigma-Aldrich) was added to a final concentration of 10 μM to avoid proliferation of glial cells, after which the neurons were allowed to differentiate for further six days at 37° C. Apoptotic cell death was induced by washing twice and changing the medium to Basal Medium Eagle (BME; Gibco BRL) supplemented with 1% (v/v) glutamine, 100 U/ml penicillin and 100 μg/ml streptomycin, 3.5 g D-glucose/l and 1% (v/v) sodium pyruvate (Gibco BRL) together with various concentrations of peptide. Thereby the concentration of potassium in the cultures was reduced to 5 mM KCl. Two days after induction of apoptosis, the cells were fixed with 4% formaldehyde and stained with Hoechst 33258 as described for the survival assay employing hippocampal neurons.
compound,measurement,setting,value
COc1cccc(-c2cc(=O)c3ccccc3o2)c1N [PD98059],effect on basal neurite outgrowth in CGN,[1],not to affect the basal neurite outgrowth
same,FGLd-induced neurite outgrowth in CGN in presence of inhibitor,"[2]; inhibitor above 25 μM, 10 μg/ml FGLd",75%
same,inhibition of FGLd-induced survival of CGN,[3]; 12.5 μM inhibitor,inhibited cell survival induced by FGLd to the level of the control cultures
Cc1c[nH]c(/C=C2\C(=O)Nc3ccccc32)c1CCC(=O)O [SU5402],block of EFL-stimulated neuritogenic activity by inhibitor of FGFR1,[4]; with EFL peptide,specifically blocked
same,"metabolic activity after OGD, FGLd pretreatment with FGFR-inhibitor present",[5],did not diminish the OGD-induced reduction in metabolic activity
same,effect of FGFR-inhibitor on FGLd action on OGD-induced decrease in FM 1-43 release,[6],abrogated the effect of FGLd
same,FGLd-induced neurite outgrowth in CGN in presence of inhibitor,"[2]; 80 μM inhibitor, 27 μg/ml FGLd",35%
same,effect on neurite outgrowth in control CGN cultures not treated with FGLd,[2]; data not shown,without significant effect on neurite outgrowth
same,effect of FGFR inhibitor on FGLd-increased FM 1-43 destaining,[7],abolished the effect of FGLd
same,"PI staining after OGD, pre-incubation with FGFR-inhibitor together with FGLd",[8],the PI staining was similar to that of OGD alone
same,inhibition of FGLd-induced survival of CGN,[3]; 20 μM inhibitor,significantly inhibited the survival response to FGLd
same,inhibition of FGLd-induced survival of CGN,[3]; 40 μM inhibitor,reduced the FGLd-induced survival to the survival rate of the untreated apoptosis-induced control neurons
NIEVWVEAENALGKKV (Interleukin-6 receptor beta chain [Swiss-Prot: Q00560]: FGFR binding motif) [EFL peptide],neurite outgrowth of rat hippocampal neurons,[4]; individual monomer,strongly stimulate neurite outgrowth
same,FGFR1 phosphorylation induced by the peptide,[9],> 300%
same,survival of rat cerebellar neurons,[10],stimulate survival
